Literature values as cited in paper PMC3910343 (Nephrology Dialysis Transplantation, 2013).

Settings: oral cinacalcet

## C[C@@H](NCCCc1cccc(C(F)(F)F)c1)c1cccc2ccccc12 [cinacalcet]
  initial half-life: ~6 h
  time to steady state: ≤ 7 days
